# Data taken from US6416642B1, “Method and apparatus for continuous liquid flow in microscale channels using pressure injection, wicking, and electrokinetic injection” (Caliper Technologies Corp., priority 1999, dated 2002).
# Test system: purinergic, P2Y receptor
# Test: Calcium flux assay in continuous-flow microfluidic device (Fluo-3 fluorescence)
# Assay type: cell-based
# Conditions: THP-1 cells loaded with Fluo-3; UTP 0-3 μM; FIG. 13 upper trace
# Method: Using a continuous flow format in planar chips using a wick to generate constant pressure driven flow, cells were mixed with an agonist and down-stream fluorescence detectors were used to monitor indicator cells using Fluo-3 (Molecular Probes Inc.) calcium sensitive fluorescent dye as a probe for receptor activation of calcium fluxes. THP-1 cells were loaded with Fluo-3 by incubation with a 4 μM concentration of the Fluo-3 AM (acetoxymethyl ester) in Hank's Balanced Salt Solution(HBSS) containing 20 mM HEPES, pH 7.0, and 1 mg/ml bovine serum albumin. After a 40 minute incubation at 37° C., Syto-6, a fluorescent DNA stain, was added to 2.5 μM, and the cells were incubated for an additional 10 minutes at room temperature. The cells were then washed free of excess dye by pelleting at 300×g for 5 minutes and resuspending and repelleting. The cells were resuspended in Cell Buffer (HBSS containing 20 mM HEPES, pH 7.0, 1 mg/ml BSA and 10% Optiprep). […]
# By taking the ratio of the two fluorescent dyes, it is possible to normalize the calcium flux response in the THP-1 cells since the DNA staining intensity is a constant in diploid, resting cells, and thereby quantitate the increase in calcium concentration.
smiles,measurement,value
O=c1ccn([C@@H]2O[C@H](COP(=O)(O)OP(=O)(O)OP(=O)(O)O)[C@@H](O)[C@H]2O)c(=O)[nH]1 [UTP],fluorescence of the calcium sensitive dye (intracellular free calcium),increases with UTP treatment in a dose dependent manner
